Laboratory results from patent US20240269094A1, “Treatment of canine dermatitis and skin irritation” (priority 2023, published 2024).
Where two headings read alike, the source gives them in different places.

Columns and labels:
[1] = Comparison of classes of cooling agents for applications on the canine skin (grades); set-up: species or system dog; key: A = excellent; B = average; C = poor; F = does not work; details: grade
Text: Here are comments on grades assigned to specific classes of cooling agents (Table 3). […] The p-menthane carboxamides cover a wide range of compounds, but they are difficult for skin formulation to achieve a long duration of action. Menthol is short-acting and irritating, especially when it is near the ocular surface. The 1-dialkylphosphorylalkane known as DIPA1-7 (Cryosim-1, 1-dialkylphosphorylheptane) is an excellent skin agent, but costs are high for dermatological applications.

[2] = target: T1, TRPM8 (Rattus norvegicus, UniProt Q8R455); details: Ref. 1 column (McKemy et al., 2002); cited from earlier work
T1 sequence (Q8R455 whole entry): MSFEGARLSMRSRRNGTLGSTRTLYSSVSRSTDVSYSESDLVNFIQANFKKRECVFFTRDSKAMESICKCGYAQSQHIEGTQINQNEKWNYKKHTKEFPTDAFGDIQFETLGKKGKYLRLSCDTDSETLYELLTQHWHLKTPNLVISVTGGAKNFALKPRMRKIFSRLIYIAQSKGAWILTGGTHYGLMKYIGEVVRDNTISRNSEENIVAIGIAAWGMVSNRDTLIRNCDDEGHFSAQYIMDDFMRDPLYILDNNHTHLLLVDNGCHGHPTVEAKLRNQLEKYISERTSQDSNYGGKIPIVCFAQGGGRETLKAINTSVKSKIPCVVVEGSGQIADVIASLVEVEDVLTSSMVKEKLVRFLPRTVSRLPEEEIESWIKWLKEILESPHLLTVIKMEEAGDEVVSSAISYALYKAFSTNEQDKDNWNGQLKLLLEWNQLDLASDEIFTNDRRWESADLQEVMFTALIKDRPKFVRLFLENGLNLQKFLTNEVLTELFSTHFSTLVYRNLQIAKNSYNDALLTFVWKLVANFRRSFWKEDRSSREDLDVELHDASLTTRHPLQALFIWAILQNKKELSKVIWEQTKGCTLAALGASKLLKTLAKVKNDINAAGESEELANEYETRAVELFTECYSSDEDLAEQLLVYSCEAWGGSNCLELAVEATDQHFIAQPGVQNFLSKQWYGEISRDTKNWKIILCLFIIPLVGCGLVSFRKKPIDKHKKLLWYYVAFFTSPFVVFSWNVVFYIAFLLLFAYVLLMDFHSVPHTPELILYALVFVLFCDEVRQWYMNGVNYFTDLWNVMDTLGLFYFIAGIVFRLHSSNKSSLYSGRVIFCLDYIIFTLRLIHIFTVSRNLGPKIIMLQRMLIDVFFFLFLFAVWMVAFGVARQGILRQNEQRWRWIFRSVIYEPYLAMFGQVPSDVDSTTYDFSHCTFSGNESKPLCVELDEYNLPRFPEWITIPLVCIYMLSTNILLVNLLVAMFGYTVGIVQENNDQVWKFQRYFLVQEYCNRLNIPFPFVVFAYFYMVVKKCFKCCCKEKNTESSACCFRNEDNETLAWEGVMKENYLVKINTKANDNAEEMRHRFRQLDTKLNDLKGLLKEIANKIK

[3] = target: T2, TRPM8 (Mus musculus, UniProt Q8R4D5); set-up: EC50; details: Ref. 3 (Bodding et al., 2007); cited from earlier work
T2 sequence (Q8R4D5 whole entry): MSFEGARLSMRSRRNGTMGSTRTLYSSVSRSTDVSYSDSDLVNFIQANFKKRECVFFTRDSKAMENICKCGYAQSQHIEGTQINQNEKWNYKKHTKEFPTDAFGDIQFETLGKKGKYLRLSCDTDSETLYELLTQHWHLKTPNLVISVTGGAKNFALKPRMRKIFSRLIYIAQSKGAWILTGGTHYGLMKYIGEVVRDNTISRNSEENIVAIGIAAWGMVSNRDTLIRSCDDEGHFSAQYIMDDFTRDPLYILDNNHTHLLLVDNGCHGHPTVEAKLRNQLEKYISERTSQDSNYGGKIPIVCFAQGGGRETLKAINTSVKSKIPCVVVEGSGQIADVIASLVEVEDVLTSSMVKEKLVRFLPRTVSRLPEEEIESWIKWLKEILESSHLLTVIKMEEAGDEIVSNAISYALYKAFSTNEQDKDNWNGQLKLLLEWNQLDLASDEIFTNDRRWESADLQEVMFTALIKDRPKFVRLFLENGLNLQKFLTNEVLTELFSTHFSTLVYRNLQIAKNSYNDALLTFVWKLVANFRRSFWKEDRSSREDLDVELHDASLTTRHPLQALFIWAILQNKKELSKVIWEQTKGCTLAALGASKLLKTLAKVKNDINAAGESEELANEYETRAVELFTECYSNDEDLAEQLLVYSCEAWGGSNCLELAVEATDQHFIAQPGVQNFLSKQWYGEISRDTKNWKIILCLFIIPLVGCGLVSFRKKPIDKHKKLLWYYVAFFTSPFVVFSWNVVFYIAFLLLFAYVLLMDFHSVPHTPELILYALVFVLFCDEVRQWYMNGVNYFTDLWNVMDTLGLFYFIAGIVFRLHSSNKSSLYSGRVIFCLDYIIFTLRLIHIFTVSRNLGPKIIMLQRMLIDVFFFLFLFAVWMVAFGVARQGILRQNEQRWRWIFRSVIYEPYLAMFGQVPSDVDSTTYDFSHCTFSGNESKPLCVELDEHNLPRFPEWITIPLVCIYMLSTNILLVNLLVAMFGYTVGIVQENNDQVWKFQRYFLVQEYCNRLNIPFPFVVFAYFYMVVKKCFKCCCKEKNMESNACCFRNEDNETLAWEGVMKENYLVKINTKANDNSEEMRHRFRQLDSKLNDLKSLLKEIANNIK

[4] = target: T1, TRPM8; set-up: EC50; other: Sherkheli, 196/1500; details: Ref. 4 (Sherkheli et al., 2010); cited from earlier work
[5] = tested on: scratching excoriations; details: ointment; Biro et al., 2005; cited from earlier work
[6] = tested on: canine atopic dermatitis; details: cited from earlier work
[7] = tested on: oral cavity; details: 100 ppm in 5% sucrose; scale of 0 to 9 units; Johnson, 2018; cited from earlier work
[8] = target: T2, TRPM8; details: Ref. 2 (Behrendt et al., 2004); cited from earlier work
[9] = target: TRPM8 (Homo sapiens, UniProt Q7Z2W7); set-up: EC50; other: Johnson, 2.2/2.2; details: Ref. 5 (Johnson et al., 2018); cited from earlier work
[10] = tested on: philtrum skin; experiment: Philtrum (skin) bioassay of cooling; assay type: in vivo, human; details: for Duration-Skin: Wei, Table 6, see FIG. 6; for Comments: quality of sensation on philtrum skin: 8% wt/vol; for Duration of cooling: 8% wt/vol on philtrum
Description: FIG. 5. The philtrum bioassay. Cooling agents, prepared as a or in solution are applied to the philtrum skin. Cooling intensity is rated on a scale of 0 to 3, with 0=no changes in sensation, 1=a slight feeling of coolness, cold or tingling, 2=a clearcut feeling of coolness of cold, and 3=a robust feeling of coolness of cold. The duration of cooling was recorded until two zeroes were measured 10 min apart.
TRPM8 EC50 Receptor Assay. […] A receptor assay is a standard tool and can be done quickly. For example, in a 384-plate assay, you can easily test 10 compounds and get dose-response data. For a chemical agonist, an in vitro TRPM8 assay generates an EC50 (median effective concentration). But the quantitative correlation between the EC50 on TRPM8 and cooling sensation was vague. That is, the science was “roughly” predictive, but there was considerable uncertainty for each agonist. […] Philtrum (Skin) Assay. For cooling sensations on the skin, it is necessary to test the substance on the skin. Wei proposed the use of the skin on the philtrum as a test site for cooling activity of chemicals (FIG. 5). The test substance is dissolved in a carrier, such as solvent, gel, or ointment and applied to the philtrum, a surface area of […]. The subject records sensations on the philtrum and environs as:
The subject is given a form to record observations and instructions to mark sensations on the philtrum and environs as: 0=no changes in sensation, 1=a slight feeling of coolness, cold, or tingling, 2=a clearcut feeling of coolness or cold, and 3=a robust feeling of coolness and cold.
The intervals for measurements are usually at 5, to 15 min after application, until two successive zeros are obtained. The philtrum application site is the midline groove above the upper lip border and vermilion. The gel is placed on the philtrum with a cotton-tipped applicator up to the nasolabial folds and sometimes, but not deliberately, on the lower nostrils (subnasale). Cold receptors densely innervate the philtrum skin (FIG. 5), second only to the surfaces of the eyeball and anogenitalia. The lips also have a high density of “cold spots.” Hensel et al. mapped the cold spots on the human face (cited in Dhaka et al., 2008). In animals such as the rat the mystacial pad (nose pad with vibrissae) is abundantly labeled with TRPM8-fibers. “Cold Points” linked to single-unit neuronal discharges can be measured in experimental animals. Wei has direct experience in such experiments (Poree et al., 1989).
Dip a cotton-tipped applicator (Puritan Cotton-tipped applicators, or Q-Tips) into a reservoir bottle containing the liquid or semi-liquid (gel) test substance. The composition adhering to the cotton (about 0.1 mL) is put on the skin. The philtrum site is shown in a cartoon. A subject can practice the method in front of a mirror with a high-intensity light source. Results for test on the philtrum are in Table 8 and FIG. 5. See data in FIG. 6. Cooling agents, prepared as an 8% wt./vol. gel, was tested topically on the philtrum skin assay. The duration of cooling was recorded (min on y-axis). The startling activity of FEMA 4557, cooling for ˜3 hr, was unexpected and surprising. FEMA 3784 is also known as Cool 10 or menthoxypropanediol. […]

[11] = tested on: tongue; experiment: Oral cavity screen: 15 mg of crystals on the dorsal surface of the tongue; assay type: in vivo, human
Description: In this discovery, sensory activity in the oral cavity was the first screen. The goal was to identify candidates producing unusual sensations. Test agents, prepared as 15 mg of white crystals, were placed on the dorsal surface of the tongue. The chemical structures and identifying characteristics are in Table 1. […] Related cooling agents were not freezing cold, except for WS-23.

[12] = target: T3, TRPA1 (Homo sapiens, UniProt O75762); experiment: Bioassay in cells transfected with TRPA1 (FIG. 4); assay type: cell-based
T3 construct: expressed in transfected cells
T3 sequence (O75762 whole entry, species assumed): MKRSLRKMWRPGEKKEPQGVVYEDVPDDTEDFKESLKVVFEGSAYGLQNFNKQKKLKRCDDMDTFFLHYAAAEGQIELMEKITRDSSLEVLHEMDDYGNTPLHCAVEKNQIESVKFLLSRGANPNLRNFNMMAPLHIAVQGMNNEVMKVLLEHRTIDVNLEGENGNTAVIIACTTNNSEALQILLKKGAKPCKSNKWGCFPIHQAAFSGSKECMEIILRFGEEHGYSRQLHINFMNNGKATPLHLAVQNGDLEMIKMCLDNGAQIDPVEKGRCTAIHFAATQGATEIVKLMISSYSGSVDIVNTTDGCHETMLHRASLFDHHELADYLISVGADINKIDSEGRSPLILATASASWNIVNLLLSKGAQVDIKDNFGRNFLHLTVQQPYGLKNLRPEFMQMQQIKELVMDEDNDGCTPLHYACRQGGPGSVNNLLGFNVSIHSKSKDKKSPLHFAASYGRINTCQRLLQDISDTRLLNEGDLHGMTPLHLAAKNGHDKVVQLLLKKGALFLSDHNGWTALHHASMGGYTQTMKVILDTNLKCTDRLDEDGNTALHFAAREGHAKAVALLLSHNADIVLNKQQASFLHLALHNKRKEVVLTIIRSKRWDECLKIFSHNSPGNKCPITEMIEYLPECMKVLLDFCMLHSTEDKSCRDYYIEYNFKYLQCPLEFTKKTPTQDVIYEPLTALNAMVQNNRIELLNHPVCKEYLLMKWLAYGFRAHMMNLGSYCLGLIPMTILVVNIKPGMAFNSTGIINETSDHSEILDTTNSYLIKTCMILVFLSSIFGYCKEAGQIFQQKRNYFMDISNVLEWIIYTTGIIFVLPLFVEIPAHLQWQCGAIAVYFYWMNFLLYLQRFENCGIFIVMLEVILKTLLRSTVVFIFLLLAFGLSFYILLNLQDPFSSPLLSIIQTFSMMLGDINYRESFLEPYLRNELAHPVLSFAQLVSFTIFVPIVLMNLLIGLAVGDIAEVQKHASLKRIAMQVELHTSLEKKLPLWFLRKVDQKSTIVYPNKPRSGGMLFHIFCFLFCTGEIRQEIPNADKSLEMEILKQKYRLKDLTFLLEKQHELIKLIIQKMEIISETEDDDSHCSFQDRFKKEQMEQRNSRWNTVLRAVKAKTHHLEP
Text: FIG. 4 Bioassay of FEMA 4557 (labeled as BUDA on the graph) in TRPM8 and TRPA1. Data from the laboratory of Prof. Seok-Yong Lee at Duke University.
FIG. 4 Bioassay of FEMA 4557 (labeled as BUDA) in TRPM8 and TRPA1. Data of Prof. Seok-Yong Lee at Duke University.

[13] = tested on: canine dermatitis, scratching and licking; experiment: Topical treatment of canine skin irritation (case studies); assay type: in vivo, dog; details: Study 3, repeated bathing
Description: The Applicant gave the dog's owner an airless pump dispenser containing 8% wt/vol of FEMA 4557 dispersed in 4 mg/ml of carbapol 980, formulated with 1% ethanol and 1% menthol, and instructed him to apply the gel to the skin of the dog's belly and groin.
A twelve-year-old West Highland Terrier had periodic episodes of seasonal skin allergy. […] The owner of the dog, who had access to a pharmacy, applied nystatin ointment and a potent skin steroid cream containing […].
Next, a 20% wt/vol FEMA 4557 solution, dissolved in propylene glycol, was applied to the interdigital folds of the paws with a cotton-tipped applicator (FIG. 9).

[14] = tested on: itch induced by various pruritogens; experiment: Itch induced by pruritogens on skin of healthy volunteers (FIG. 1); assay type: in vivo, human; details: gel on skin, five test pruritogens, itch self-rated 0 to 10 for 10 min
Description: FIG. 1. Topical Application of a cooling DIPA1-7 gel on skin of healthy volunteers inhibits itch induced by various pruritogens. n=30 subjects per trial. Results of Prof. Hyeone Kim, Sacred Heart Hospital, […] University, Seoul, Korea. Itch intensity was self-rated on a scale of 0 to 10 for 10 min (maximum score=100). […] Further details will be described in a scientific paper.

[15] = tested on: itch of urticaria and scalp itch; details: Kang et al., 2022; cited from earlier work
[16] = tested on: tongue; experiment: Oral cavity screen: 15 mg of crystals on the dorsal surface of the tongue; assay type: in vivo, human; details: less than 2 mg on the tongue

SMILES: O=C1NC(c2cccc([N+](=O)[O-])c2)=CCN1c1ccccc1O [icilin]
- Absence of Irritancy [1]: A
- Potency [1]: A
- Rapid Onset [1]: B
- Safety in Use [1]: A
- Sufficient Duration [1]: A
- EC50 [2]: 0.36 µM
- EC50 [3]: 1.4 µM
- EC50 [4]: 7 µM
- scratching excoriations [5]: prevented scratching excoriations

SMILES: CNS(=O)(=O)C[C@H]1CC[C@H](N(C)c2ncnc3[nH]ccc23)CC1 [oclacitinib]
- onset of anti-scratching effects ([6]; oral tablet once or twice a day): as early as four hours after dosing
- Onset ([6]; oral tablet): 15 min, hours

SMILES: CCNC(=O)[C@@H]1C[C@H](C)CC[C@H]1C(C)C [WS-3]
- Cooling Intensity Oral Cavity Scaled [7]: 5.2
- EC50 [8]: 3.7 µM
- EC50 [9]: 5.9 µM
- EC50 [4]: 210 µM
- Duration-Skin [10]: 0.3 h
- Effects of 15 mg on tongue: duration [11]: ~8 min
- Effects of 15 mg on tongue: sensation [11]: pleasant cooling in oral cavity

SMILES: C=CCN=C=S [AITC, allyl isothiocyanate]
- activity on TRPA1 [12]: active

SMILES: CCOC(=O)CNC(=O)[C@@H]1C[C@H](C)CC[C@H]1C(C)C [WS-5]
- Cooling Intensity Oral Cavity Scaled [7]: 6
- EC50 [9]: 0.5 µM
- EC50 [4]: 26 µM
- Comments: quality of sensation on philtrum skin [10]: pleasant cool sensations of skin
- Duration of cooling [10]: 51 ± 4 min
- Duration-Skin [10]: 0.5 h
- Effects of 15 mg on tongue: duration [11]: ~12 min
- Effects of 15 mg on tongue: sensation [11]: pleasant cooling in oral cavity

SMILES: Clc1ccc(COC(Cn2ccnc2)c2ccc(Cl)cc2Cl)c(Cl)c1 (stereo not shown) [miconazole]
- effect of antifungal shampoo on skin irritation [13]: did not make any difference

SMILES: CCCCCCCP(=O)(C(C)C)C(C)C [DIPA-1-7, 1-diisopropylphosphorylheptane]
- inhibition of pruritogen-induced itch [14]: significantly inhibited itching
- itch in human subjects [15]: inhibited the itch of urticaria and scalp itch
- adverse skin sensations ([10]; on skin, contrast to FEMA 4557): frigid cold and irritation
- Effects of 15 mg on tongue: sensation [11]: stinging, painful cold
- sensation on the tongue [16]: frigid, stinging, icy, and painful cold

SMILES: CCCCCCCP(=O)(C(C)CC)C(C)CC (stereo not shown) [WS-148]
- EC50 [3]: 4.1 µM

SMILES: CC(C)[C@@H]1CC[C@@H](C)C[C@H]1OCC(O)CO (stereo partly shown) [Cool 10, menthoxypropanediol]
- EC50 [8]: 6 µM

SMILES: COc1ccc(NC(=O)[C@@H]2C[C@H](C)CC[C@H]2C(C)C)cc1 [WS-12]
- Cooling Intensity Oral Cavity Scaled [7]: 3
- EC50 [9]: 22.1 µM
- EC50 [3]: 0.2 µM
- EC50 [4]: 12 µM
- Comments: quality of sensation on philtrum skin [10]: pleasant cool sensations on skin
- Duration of cooling [10]: 38 ± 4 min
- Duration-Skin [10]: 0.4 h
- Effects of 15 mg on tongue: duration [11]: ~20 min
- Effects of 15 mg on tongue: sensation [11]: pleasant cooling in oral cavity

SMILES: CC(C)OC(=O)CNC(=O)[C@@H]1C[C@H](C)CC[C@H]1C(C)C [Ax-8, p-Menthane-Gly-OiPr]
- Effects of 15 mg on tongue: duration [11]: ~27 min
- Effects of 15 mg on tongue: sensation [11]: pleasant cooling in oral cavity

SMILES: CC(=O)N1CCN(c2ccc(OCC3COC(Cn4ccnc4)(c4ccc(Cl)cc4Cl)O3)cc2)CC1 (stereo not shown) [ketoconazole]
- effect of antifungal shampoo on skin irritation [13]: did not make any difference

SMILES: CC(C)[C@@H]1CC[C@@H](C)C[C@H]1O [l-menthol]
- Cooling Intensity Oral Cavity Scaled [7]: 5
- EC50 [8]: 4.1 µM
- EC50 [2]: 67 µM
- EC50 [3]: 10.4 µM
- EC50 [4]: 196 µM
- Duration-Skin [10]: 0.3 h

SMILES: CCOC(=O)[C@@H](C)NC(=O)[C@@H]1C[C@H](C)CC[C@H]1C(C)C [CPS-369]
- EC50 [3]: 3.6 µM
- EC50 [4]: 65 µM
